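Test compounds were applied to cells in 96-well plates for 48 hours at 5 doses. GI50 = concentration required for 50% inhibition of growth. TGI is the concentration that stops growth completely.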
Key:
Assay in all cases: inhibition of tumour cell growth, NCI panel, 48 h
SK-MEL-2 melanoma = test system: SK-MEL-2 melanoma
SN12C renal = test system: SN12C renal
U251 CNS = test system: U251 CNS
TK-10 renal = test system: TK-10 renal
NCI-H522 lung = test system: NCI-H522 lung
COLO 205 colon = test system: COLO 205 colon
BT-549 breast = test system: BT-549 breast
OVCAR-5 ovarian = test system: OVCAR-5 ovarian
M14 melanoma = test system: M14 melanoma
NCI-H23 lung = test system: NCI-H23 lung
T-47D breast = test system: T-47D breast
HOP-62 NSCLC = test system: HOP-62 NSCLC
MALME-3M melanoma = test system: MALME-3M melanoma
SF-268 CNS = test system: SF-268 CNS
HCT-15 colon = test system: HCT-15 colon
A549 NSCLC = test system: A549 NSCLC
HCT-116 colon = test system: HCT-116 colon
UACC-62 melanoma = test system: UACC-62 melanoma
SK-OV-3 ovarian = test system: SK-OV-3 ovarian
UO-31 renal = test system: UO-31 renal
KM12 colon = test system: KM12 colon
NCI-H226 lung = test system: NCI-H226 lung
MDA-MB-435 = test system: MDA-MB-435
HCC-2998 colon = test system: HCC-2998 colon
HS 578T breast = test system: HS 578T breast
MDA-MB-231 breast = test system: MDA-MB-231 breast
ACHN renal = test system: ACHN renal
SK-MEL-28 melanoma = test system: SK-MEL-28 melanoma
CCRF-CEM leukemia = test system: CCRF-CEM leukemia
MOLT-4 leukemia = test system: MOLT-4 leukemia
SNB-19 CNS = test system: SNB-19 CNS
CAKI-1 renal = test system: CAKI-1 renal
RXF 393 renal = test system: RXF 393 renal
K-562 leukemia = test system: K-562 leukemia
SF-539 CNS = test system: SF-539 CNS
HOP-92 NSCLC = test system: HOP-92 NSCLC
786-0 renal = test system: 786-0 renal
NCI-H460 lung = test system: NCI-H460 lung
EKVX NSCLC = test system: EKVX NSCLC
HL-60(TB) leukemia = test system: HL-60(TB) leukemia
SNB-75 CNS = test system: SNB-75 CNS
PC-3 prostate = test system: PC-3 prostate
MCF7 breast = test system: MCF7 breast
OVCAR-8 ovarian = test system: OVCAR-8 ovarian
OVCAR-4 ovarian = test system: OVCAR-4 ovarian
HT29 colon = test system: HT29 colon
UACC-257 melanoma = test system: UACC-257 melanoma
NCI/ADR-RES ovarian = test system: NCI/ADR-RES ovarian

`CC(=O)/C=C/c1ccc(Nc2c3ccccc3nc3occ(Cl)c23)cc1` gave a GI50 (SK-MEL-2 melanoma) of 42.6 µM, a TGI (SK-MEL-2 melanoma) greater than 100 µM and a GI50 (SN12C renal) of 3.29 µM. It also gave a TGI (SN12C renal) of 14.3 µM, a GI50 (U251 CNS) of 2.33 µM and a TGI (U251 CNS) of 6.83 µM. It also gave a GI50 (TK-10 renal) of 3.87 µM, a TGI (TK-10 renal) of 24.8 µM and a GI50 (NCI-H522 lung) of 3.43 µM. It also gave a TGI (NCI-H522 lung) of 16.1 µM, a GI50 (COLO 205 colon) of 4.46 µM and a TGI (COLO 205 colon) of 19.5 µM. It also gave a GI50 (BT-549 breast) of 4.9 µM, a TGI (BT-549 breast) of 22.7 µM and a GI50 (OVCAR-5 ovarian) of 13.9 µM. For the same compound, the TGI (OVCAR-5 ovarian) was 30.7 µM, the GI50 (M14 melanoma) was 4.49 µM and the TGI (M14 melanoma) was 18.2 µM. For the same compound, the GI50 (NCI-H23 lung) was 3.1 µM, the TGI (NCI-H23 lung) was 13.2 µM and the GI50 (T-47D breast) was 4.82 µM. For the same compound, the TGI (T-47D breast) was 76.3 µM, the GI50 (HOP-62 NSCLC) was 19.5 µM and the TGI (HOP-62 NSCLC) was 61.3 µM. It also gave a GI50 (MALME-3M melanoma) of 6.48 µM, a TGI (MALME-3M melanoma) of 24.9 µM and a GI50 (SF-268 CNS) of 3.16 µM. For the same compound, the TGI (SF-268 CNS) was 17.5 µM, the GI50 (HCT-15 colon) was 2.09 µM and the TGI (HCT-15 colon) was 11.7 µM. For the same compound, the GI50 (A549 NSCLC) was 4.04 µM, the TGI (A549 NSCLC) was 32.5 µM and the GI50 (HCT-116 colon) was 4.83 µM. The TGI (HCT-116 colon) was 17.6 µM, the GI50 (UACC-62 melanoma) was 1.66 µM and the TGI (UACC-62 melanoma) was 7.03 µM. For the same compound, the GI50 (SK-OV-3 ovarian) was 8.21 µM, the TGI (SK-OV-3 ovarian) was 65.6 µM and the GI50 (UO-31 renal) was 14.2 µM. For the same compound, the TGI (UO-31 renal) was greater than 100 µM, the GI50 (KM12 colon) was greater than 100 µM and the TGI (KM12 colon) was greater than 100 µM. For the same compound, the GI50 (NCI-H226 lung) was 4.87 µM, the TGI (NCI-H226 lung) was 21.7 µM and the GI50 (MDA-MB-435) was 2.03 µM. For the same compound, the TGI (MDA-MB-435) was 5.95 µM, the GI50 (HCC-2998 colon) was 2.93 µM and the TGI (HCC-2998 colon) was 14.6 µM. The GI50 (HS 578T breast) was 5.75 µM, the TGI (HS 578T breast) was greater than 100 µM and the GI50 (MDA-MB-231 breast) was 2.63 µM. The TGI (MDA-MB-231 breast) was 9.06 µM, the GI50 (ACHN renal) was 3.32 µM and the TGI (ACHN renal) was 12.5 µM. It also gave a GI50 (SK-MEL-28 melanoma) of 15.1 µM, a TGI (SK-MEL-28 melanoma) greater than 100 µM and a GI50 (CCRF-CEM leukemia) of 2.96 µM. The TGI (CCRF-CEM leukemia) was 19.7 µM, the GI50 (MOLT-4 leukemia) was 2.69 µM and the TGI (MOLT-4 leukemia) was 13.3 µM. For the same compound, the GI50 (SNB-19 CNS) was 8.71 µM, the TGI (SNB-19 CNS) was 30.2 µM and the GI50 (CAKI-1 renal) was 0.159 µM. The TGI (CAKI-1 renal) was 1.07 µM, the GI50 (RXF 393 renal) was 0.497 µM and the TGI (RXF 393 renal) was 7.15 µM. It also gave a GI50 (K-562 leukemia) of 2.45 µM, a TGI (K-562 leukemia) of 13.3 µM and a GI50 (SF-539 CNS) of 4.52 µM. It also gave a TGI (SF-539 CNS) of 22.9 µM, a GI50 (HOP-92 NSCLC) of 4.51 µM and a TGI (HOP-92 NSCLC) of 29.4 µM. For the same compound, the GI50 (786-0 renal) was 3.17 µM, the TGI (786-0 renal) was 17.2 µM and the GI50 (NCI-H460 lung) was 2.96 µM. For the same compound, the TGI (NCI-H460 lung) was 14.6 µM, the GI50 (EKVX NSCLC) was 27.2 µM and the TGI (EKVX NSCLC) was 78.2 µM. The GI50 (HL-60(TB) leukemia) was 3.1 µM, the TGI (HL-60(TB) leukemia) was 8.56 µM and the GI50 (SNB-75 CNS) was 18.3 µM. The TGI (SNB-75 CNS) was 59.4 µM, the GI50 (PC-3 prostate) was 2.63 µM and the TGI (PC-3 prostate) was 18.8 µM. The GI50 (MCF7 breast) was 1.07 µM, the TGI (MCF7 breast) was 14.3 µM and the GI50 (OVCAR-8 ovarian) was 2.03 µM. For the same compound, the TGI (OVCAR-8 ovarian) was 4.64 µM, the GI50 (OVCAR-4 ovarian) was 4.35 µM and the TGI (OVCAR-4 ovarian) was 30.2 µM. For the same compound, the GI50 (HT29 colon) was 2.58 µM, the TGI (HT29 colon) was greater than 100 µM and the GI50 (UACC-257 melanoma) was 1.24 µM. It also gave a TGI (UACC-257 melanoma) of 5.59 µM, a GI50 (NCI/ADR-RES ovarian) of 2.56 µM and a TGI (NCI/ADR-RES ovarian) of 5.88 µM.

— PubChem BioAssay (NCI)
